Assay results taken from publication PMC10847966 (Nature chemical biology, 2023).

Legend:
MthK [1] = biological target: MthK (Methanothermobacter thermautotrophicus, UniProt O27564, V91F); test: stopped-flow Tl+ flux assay in liposomes; assay type: biochemical
MthK [2] = biological target: MthK (Methanothermobacter thermautotrophicus, UniProt O27564, A90L); test: stopped-flow Tl+ flux assay in liposomes; assay type: biochemical
MthK [3] = biological target: MthK (Methanothermobacter thermautotrophicus, UniProt O27564, A88F); test: single-particle cryo-EM structure; assay type: binding

Compound: CCCCC[N+](CCCCC)(CCCCC)CCCCC [TPeA]
- IC50 (MthK [1]): 2.05 µM
- IC50 (MthK [2]): 9.7 µM
- single-particle cryo-EM structure (MthK [3]): Processing workflow for A88F-TPeA dataset, TPeA densities in the maps with C4 symmetry (mesh), TPeA molecule (stick)
